# Literature values, collected in patent US20090061012A1 (priority 2007, published 2009).
# Assays:
# Conditions in all cases: in vivo
# [1] = test system: Lemon, Blue, and Great White Sharks
# [2] = test system: sharks
# [3] = test system: sharks; remark: listed apart in the source
# [4] = test system: shark's respiratory systems via the gill rakes
Molecule,repelling sharks relative to pardaxin [1],further results
"CCCCCCCCCCCCOS(=O)(=O)[O-].[Li+] [LLS, lithium lauryl sulfate]",even better than pardaxin,–
"CCCCCCCCCCCCOS(=O)(=O)[O-].[Na+] [SDS, sodium dodecyl sulphate]",–,concentration at which effective as a repellent [2]: 43.6 ppm
"CCCCCCCCCCCCOS(=O)(=O)[O-].[Na+] [SLS, sodium lauryl sulfate]",even better than pardaxin,effectiveness in surrounding-cloud mode dispersions [3]: not effective
"CCCCCCCCCCCCCCCCCCOS(=O)(=O)[O-].[Na+] [SOS, sodium octadecyl sulphate]",even better than pardaxin,–
pardaxin,–,repellent impact on sharks [4]: significant repellent impact
